Experimental data taken from US4910191A, “19-substituted progesterone derivatives useful as 19-hydroxylase inhibitors” (Merrell Dow Pharmaceuticals Inc., priority 1988, dated 1990).

How the values were obtained:
adrenal 19-hydroxylase = experiment: in vitro radioenzymatic assay, inhibition of adrenal 19-hydroxylase (19-hydroxylation of radiolabeled deoxycorticosterone); assay type: biochemical, rat, hamster, bovine, primate, or human
Procedure: The compounds of the present invention are useful as 19-hydroxylase inhibitors and antihypertensive agents. […] The test compounds are solubilized in buffer/solvent media at concentrations ranging from 1 nM to 50 μM, then added to assay tubes containing an adrenal mitochondrial suspension, i.e., rat, hamster, bovine, primate, or human, an NADPH-generating system, and radiolabeled deoxycorticosterone. The assay components are incubated for varying time intervals at 25°-37° C. and the reaction is quenched. The hydroxylated corticoids [i.e., 19--HO--DOC (19-hydroxydesoxycorticosterone), 18--HO--DOC(18-hydroxydeoxycorticosterone) and corticosterone] are extracted with organic solvent and isolated by standard chromatographic procedures.

weanling SHR rats = settings: administered to weanling SHR rats; Melby et al., 1987; cited from earlier work
[1] = times the potency of DOC; Kagawa et al., 1957; cited from earlier work
[2] = Funder et al., 1978; cited from earlier work
bad bladder epithelia = settings: relative to aldosterone; Perrone et al., 1981; cited from earlier work

C#CC[C@]12CCC(=O)C=C1CC[C@@H]1[C@@H]2CC[C@]2(C)[C@@H](C(=O)CO)CC[C@@H]12 [21-hydroxy-10-(2-propynyl)-19-norpregn-4-ene-3,20-dione]
IC50 (adrenal 19-hydroxylase; adrenal mitochondrial suspension, NADPH-generating system, radiolabeled deoxycorticosterone, 25°-37° C., time-dependent, read-out: IC50 (time-dependent enzyme inhibition)): ~50 nM
affinity for the 19-hydroxylase active site relative to the natural substrate (DOC) (adrenal 19-hydroxylase; greater affinity than DOC): 12 times

C#CC[C@]12CCC(=O)C=C1CC[C@@H]1[C@@H]2CC[C@]2(C)C(=O)CC[C@@H]12 [10-(2-propynyl)estr-4-ene-3,17-dione]
development of hypertension (weanling SHR rats): retards the development of hypertension
levels of urinary free 19-norDOC (weanling SHR rats): reduces the levels of urinary free 19-norDOC

C[C@]12CC[C@H]3[C@@H](CCC4=CC(=O)CC[C@@H]43)[C@@H]1CC[C@@H]2C(=O)CO [Example 19-norDOC, 19-nordeoxycorticosterone]
Na-retaining activity, potency relative to DOC [1]: two to five
hypertensive activity compared to deoxycorticosterone (DOC) [2]: much higher hypertensive activity
stimulating Na^+ transport across bladder epithelia, potency vs aldosterone (bad bladder epithelia): equipotent to aldosterone
